Measured values reported in PubChem BioAssay AID330 (DTP/NCI, 2004).
“And” between values parts separate entries of the source, which are not always exact repeats. Equal values may be shown once. Inconclusive results and toxic doses are left out. Rule for the calls: active = survival T/C of 150% or more; inactive = T/C below 125% in these data.

Test system: P388 leukemia ip, CD2F1 mice, survival T/C
Assay: NCI In Vivo Anticancer Drug Screen. Data for tumor model P388 Leukemia (intraperitoneal) in CD2F1 (CDF1) mice
Conditions: endpoint: median survival time, higher = longer survival
In short: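 Mice carrying the transplanted tumor received test compound or vehicle. Survival was recorded in each group, and the value is the treated-group measurement divided by that of the vehicle-treated control group.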

[1] = dose: 60.0 mg/kg/injection, schedule: Q01DX005 (ip), vehicle: saline with Tween-80
[2] = dose: 120.0 mg/kg/injection, schedule: Q01DX005 (ip), vehicle: saline with Tween-80
[3] = dose: 240.0 mg/kg/injection, schedule: Q01DX005 (ip), vehicle: saline with Tween-80
[4] = dose: 50.0 mg/kg/injection, schedule: Q01DX005 (ip), vehicle: saline with Tween-80
[5] = dose: 100.0 mg/kg/injection, schedule: Q01DX005 (ip), vehicle: saline with Tween-80
[6] = dose: 200.0 mg/kg/injection, schedule: Q01DX005 (ip), vehicle: saline with Tween-80
[7] = dose: 100.0 mg/kg/injection, schedule: Q04DX003 (ip), vehicle: saline
[8] = dose: 200.0 mg/kg/injection, schedule: Q04DX003 (ip), vehicle: saline
[9] = dose: 400.0 mg/kg/injection, schedule: Q04DX003 (ip), vehicle: saline
[10] = dose: 50.0 mg/kg/injection, schedule: Q01DX009 (ip), vehicle: saline with Tween-80
[11] = dose: 100.0 mg/kg/injection, schedule: Q01DX009 (ip), vehicle: saline with Tween-80

Measured: T/C

O=C1OC(Nc2ccccc2)C(Cl)=C1Cl (stereo unspecified)
inactive: [1] 102 % of control | [2] 104 % of control | [3] 103 % of control

O=C1C=C(C2OC(CI)C(O)C2O)C(=O)N1 (stereo unspecified)
inactive: dose: 1.56 mg/kg/injection, schedule: Q01DX009 (ip), vehicle: water 113 % of control | dose: 3.13 mg/kg/injection, schedule: Q01DX009 (ip), vehicle: water 112 % of control | dose: 6.25 mg/kg/injection, schedule: Q01DX009 (ip), vehicle: water 118 % of control | dose: 12.5 mg/kg/injection, schedule: Q01DX009 (ip), vehicle: water 109 % of control | dose: 25.0 mg/kg/injection, schedule: Q01DX009 (ip), vehicle: water 118 % of control

CC1CCC(=O)CN1Cc1ccccc1 (stereo unspecified)
inactive: [4] 109 % of control | [5] 101 % of control

CCOP(=S)(OCC)OC(=O)C(C)SSC (stereo unspecified) (tested in a mixture with another compound)
inactive: [1] 101 % of control | [2] 104 % of control

O=c1[nH]c2ccccc2nc1CBr
inactive: dose: 1.56 mg/kg/injection, schedule: Q01DX009 (ip), vehicle: saline with Tween-80 109 % of control | dose: 3.13 mg/kg/injection, schedule: Q01DX009 (ip), vehicle: saline with Tween-80 109 % of control | dose: 6.25 mg/kg/injection, schedule: Q01DX009 (ip), vehicle: saline with Tween-80 113 % of control | dose: 8.33 mg/kg/injection, schedule: Q01DX009 (ip), vehicle: saline with Tween-80 118 % of control | dose: 12.5 mg/kg/injection, schedule: Q01DX009 (ip), vehicle: saline with Tween-80 113 % of control and 122 % of control | dose: 18.7 mg/kg/injection, schedule: Q01DX009 (ip), vehicle: saline with Tween-80 118 % of control

OC1c2cccn2-c2cc(Cl)ccc2SC1c1ccccc1 (stereo unspecified)
inactive: [1] 99 % of control | [2] 101 % of control | [3] 100 % of control

CC(C)N(C(=O)c1ncccc1C(=O)c1ccccn1)C(C)C
inactive: [4] 105 % of control | [5] 94 % of control | [6] 94 % of control

CCOC1(C)OC2OC(COCc3ccccc3)C(OCc3ccccc3)C(OCc3ccccc3)C2O1 (stereo unspecified)
inactive: dose: 12.5 mg/kg/injection, schedule: Q01DX009 (ip), vehicle: other 99 % of control | dose: 25.0 mg/kg/injection, schedule: Q01DX009 (ip), vehicle: other 100 % of control | dose: 50.0 mg/kg/injection, schedule: Q01DX009 (ip), vehicle: other 100 % of control | dose: 100.0 mg/kg/injection, schedule: Q01DX009 (ip), vehicle: other 89 % of control | dose: 200.0 mg/kg/injection, schedule: Q01DX009 (ip), vehicle: other 98 % of control

NCC[Se]CC(N)C(=O)O (stereo unspecified)
inactive: dose: 6.25 mg/kg/injection, schedule: Q01DX009 (ip), vehicle: saline 101 % of control | dose: 12.5 mg/kg/injection, schedule: Q01DX009 (ip), vehicle: saline 100 % of control | dose: 25.0 mg/kg/injection, schedule: Q01DX009 (ip), vehicle: saline 101 % of control

COC(=O)C1(C)CCCC2(C)c3cc(OC)ccc3C3(CC12)OCCO3 (stereo unspecified)
inactive: dose: 5.0 mg/kg/injection, schedule: Q01DX009 (ip), vehicle: saline 98 % of control | dose: 10.0 mg/kg/injection, schedule: Q01DX009 (ip), vehicle: saline 95 % of control | dose: 20.0 mg/kg/injection, schedule: Q01DX009 (ip), vehicle: saline 89 % of control

CC12CCCN1C(=O)C1(C)CCCN1C2=O (stereo unspecified)
inactive: [7] 101 % of control | [8] 98 % of control | [9] 97 % of control

O=C(OCCn1ncnn1)c1ccc([N+](=O)[O-])cc1
inactive: dose: 50.0 mg/kg/injection, schedule: Q01DX005 (ip), vehicle: Klucel (hydroxypropylcellulose) (HPC) 104 % of control | dose: 100.0 mg/kg/injection, schedule: Q01DX005 (ip), vehicle: Klucel (hydroxypropylcellulose) (HPC) 104 % of control | dose: 200.0 mg/kg/injection, schedule: Q01DX005 (ip), vehicle: Klucel (hydroxypropylcellulose) (HPC) 95 % of control

COC1=CC2C3Cc4c(-c5cc(OC)c(O)c6c5CC5C7C=C(OC)C(=O)CC67CCN5C)cc(OC)c(O)c4C2(CCN3C)CC1=O (stereo unspecified)
inactive: [10] 97 % of control | dose: 50.0 mg/kg/injection, schedule: Q01DX009 (ip), vehicle: saline 105 % of control | [11] 102 % of control | dose: 100.0 mg/kg/injection, schedule: Q01DX009 (ip), vehicle: saline 94 % of control | dose: 100.0 mg/kg/injection, schedule: Q04DX003 (ip), vehicle: saline with Tween-80 104 % of control | [7] 95 % of control | dose: 200.0 mg/kg/injection, schedule: Q01DX009 (ip), vehicle: saline 105 % of control | dose: 200.0 mg/kg/injection, schedule: Q04DX003 (ip), vehicle: saline with Tween-80 106 % of control | [8] 93 % of control | dose: 400.0 mg/kg/injection, schedule: Q04DX003 (ip), vehicle: saline with Tween-80 95 % of control | [9] 96 % of control

Cc1cc2nc(C)nn2c(C)n1
inactive: dose: 25.0 mg/kg/injection, schedule: Q04DX003 (ip), vehicle: saline 104 % of control | dose: 50.0 mg/kg/injection, schedule: Q04DX003 (ip), vehicle: saline 96 % of control | [7] 111 % of control and 88 % of control | [9] 88 % of control

O=C1CC(Cl)(CS(F)(F)(F)(F)F)O1 (stereo unspecified)
inactive: dose: 12.5 mg/kg/injection, schedule: Q01DX005 (ip), vehicle: saline + alcohol 100 % of control | dose: 12.5 mg/kg/injection, schedule: Q01DX005 (ip), vehicle: saline with Tween-80 104 % of control | dose: 25.0 mg/kg/injection, schedule: Q01DX005 (ip), vehicle: saline + alcohol 103 % of control | dose: 25.0 mg/kg/injection, schedule: Q01DX005 (ip), vehicle: saline with Tween-80 109 % of control | dose: 50.0 mg/kg/injection, schedule: Q01DX005 (ip), vehicle: saline + alcohol 99 % of control | [4] 110 % of control and 114 % of control

C/C(=C\C(=O)c1ccccc1)Nc1noc(-c2ccccc2)n1
inactive: [1] 97 % of control | [2] 94 % of control | [3] 96 % of control

NC(=O)c1cc(C(N)=O)n(C2OC(CO)C(O)C2O)n1 (stereo unspecified)
inactive: dose: 30.0 mg/kg/injection, schedule: Q04DX002 (ip), vehicle: saline 98 % of control and 99 % of control | dose: 60.0 mg/kg/injection, schedule: Q04DX002 (ip), vehicle: saline 104 % of control and 93 % of control | dose: 120.0 mg/kg/injection, schedule: Q04DX002 (ip), vehicle: saline 98 % of control and 93 % of control

CCOC(=O)CN1CN(CCCN(C)C)CC(C)(C)C1OCC (stereo unspecified)
inactive: dose: 15.0 mg/kg/injection, schedule: Q01DX009 (ip), vehicle: saline with Tween-80 108 % of control | dose: 30.0 mg/kg/injection, schedule: Q01DX009 (ip), vehicle: saline with Tween-80 98 % of control | dose: 60.0 mg/kg/injection, schedule: Q01DX009 (ip), vehicle: saline with Tween-80 99 % of control

COc1ccc(C(c2cc3c(cc2O)OCO3)N2CCOCC2)cc1OC (stereo unspecified)
inactive: [1] 101 % of control | [2] 109 % of control | [3] 111 % of control

C1=C2CCc3ccc(o3)CCC(=C1)O2
inactive: [4] 100 % of control | [5] 94 % of control | [6] 93 % of control

Nc1nc2c(c(=O)[nH]1)NC(CCNc1ccc(C(=O)NC(CCC(=O)O)C(=O)O)cc1)CN2 (stereo unspecified)
inactive: dose: 25.0 mg/kg/injection, schedule: Q01DX009 (ip), vehicle: saline with Tween-80 100 % of control | [10] 104 % of control and 118 % of control | dose: 100.0 mg/kg/injection, schedule: Q01DX009 (ip), vehicle: saline sonified 113 % of control | [11] 122 % of control
